Where two headings read alike, the source gives them in different places.
Legend:
[1] = target: YES1 (Homo sapiens (Human), UniProt P07947); test: Dundee profiling
[2] = target: GST-LRRK2[G2019S](1,326-2,527) (Homo sapiens (Human), UniProt Q5S007, G2019S); test: Nictide peptide kinase assay, 100 μM ATP; assay type: biochemical; conditions: 20 μM Nictide
Experimental: (§1) Assay procedures are further discussed in Section 4 herein.
(§2) Samples were washed extensively and the incorporation of [γ-32P]ATP into Nictide was quantified by Cerenkov counting. IC50 values were calculated with GraphPad Prism using non-linear regression analysis.

[3] = target: GST-LRRK2[G2019S + A2016T](1,326-2,517) (Homo sapiens (Human), UniProt Q5S007, A2016T/G2019S); test: Nictide peptide kinase assay, 100 μM ATP; assay type: biochemical; conditions: 20 μM Nictide
Experimental: as §1, §2

[4] = target: GST-LRRK2[A2016T](1326-2517) (Homo sapiens (Human), UniProt Q5S007, A2016T); test: Nictide peptide kinase assay, 100 μM ATP; assay type: biochemical; conditions: 20 μM Nictide
Experimental: as §1, §2

[5] = target: GST-LRRK2(1,326-2,517) wild-type (Homo sapiens (Human), UniProt Q5S007); test: Nictide peptide kinase assay, 100 μM ATP; assay type: biochemical; conditions: 20 μM Nictide
Experimental: as §1, §2

[6] = target: ERK5 (Homo sapiens (Human), UniProt Q13164); test: Dundee profiling
[7] = target: MKK1 (Homo sapiens (Human), UniProt Q02750); test: Dundee profiling
[8] = target: ULK1 (Homo sapiens (Human), UniProt O75385); test: KinomeScan; assay type: binding; conditions: 1 uM
[9] = Pharmacokinetic study in mice; assay type: in vivo, mouse; conditions: for C0: back extrapolated conc.; for Vd: read-out: Vss
[10] = target: DLK (Homo sapiens (Human), UniProt Q12852); test: KinomeScan; assay type: binding; conditions: 1 uM
[11] = target: MINK1 (Homo sapiens (Human), UniProt Q8N4C8); test: Dundee profiling
Chain of MINK1 (Q8N4C8 whole entry, species assumed): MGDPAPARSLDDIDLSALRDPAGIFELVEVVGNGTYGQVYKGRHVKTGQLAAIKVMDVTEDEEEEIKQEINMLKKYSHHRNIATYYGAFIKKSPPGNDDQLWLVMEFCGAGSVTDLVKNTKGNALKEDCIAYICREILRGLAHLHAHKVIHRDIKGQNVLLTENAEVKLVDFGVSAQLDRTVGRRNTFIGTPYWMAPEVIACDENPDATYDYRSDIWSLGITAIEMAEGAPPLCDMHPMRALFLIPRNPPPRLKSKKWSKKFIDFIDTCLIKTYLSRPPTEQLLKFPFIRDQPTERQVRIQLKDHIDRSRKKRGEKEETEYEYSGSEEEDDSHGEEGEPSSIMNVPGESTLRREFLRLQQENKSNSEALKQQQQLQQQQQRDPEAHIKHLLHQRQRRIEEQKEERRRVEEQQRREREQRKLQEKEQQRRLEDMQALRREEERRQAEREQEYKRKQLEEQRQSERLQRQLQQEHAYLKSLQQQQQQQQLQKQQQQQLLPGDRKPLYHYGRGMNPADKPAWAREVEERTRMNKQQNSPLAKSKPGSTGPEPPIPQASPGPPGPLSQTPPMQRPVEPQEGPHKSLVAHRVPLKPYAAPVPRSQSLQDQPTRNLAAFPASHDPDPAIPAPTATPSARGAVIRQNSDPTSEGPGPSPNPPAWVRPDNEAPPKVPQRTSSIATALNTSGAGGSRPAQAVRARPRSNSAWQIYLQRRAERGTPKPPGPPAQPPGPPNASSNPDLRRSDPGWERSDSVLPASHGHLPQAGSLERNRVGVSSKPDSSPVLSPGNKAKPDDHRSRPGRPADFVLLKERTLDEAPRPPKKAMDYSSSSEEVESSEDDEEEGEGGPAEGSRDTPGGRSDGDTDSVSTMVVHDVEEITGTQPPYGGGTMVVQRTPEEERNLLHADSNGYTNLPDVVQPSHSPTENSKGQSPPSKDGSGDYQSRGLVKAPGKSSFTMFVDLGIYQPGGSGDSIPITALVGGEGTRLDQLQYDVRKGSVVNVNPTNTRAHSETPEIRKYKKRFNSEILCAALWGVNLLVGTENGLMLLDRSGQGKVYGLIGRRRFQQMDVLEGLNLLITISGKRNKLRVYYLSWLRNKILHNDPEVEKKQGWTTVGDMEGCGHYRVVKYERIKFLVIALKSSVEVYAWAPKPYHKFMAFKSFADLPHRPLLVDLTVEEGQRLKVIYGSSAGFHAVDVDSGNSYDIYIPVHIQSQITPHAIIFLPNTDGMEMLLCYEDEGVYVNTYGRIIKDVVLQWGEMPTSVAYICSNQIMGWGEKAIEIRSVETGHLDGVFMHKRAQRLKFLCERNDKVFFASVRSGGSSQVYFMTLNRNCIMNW

[12] = target: PAK4 (Homo sapiens (Human), UniProt O96013); test: Dundee profiling
[13] = target: EGFR (L747-S752del, P753S) (Homo sapiens (Human), UniProt P00533, DEL747-752/P753S); test: KinomeScan; assay type: binding; conditions: 1 uM
[14] = target: MNK2 (Homo sapiens (Human), UniProt Q9HBH9); test: Dundee profiling
[15] = target: MKK6 (Homo sapiens (Human), UniProt P52564); test: Dundee profiling
[16] = target: OSR1 (Homo sapiens (Human), UniProt O95747); test: Dundee profiling
[17] = target: PKMYT1 (Homo sapiens (Human), UniProt Q99640); test: KinomeScan; assay type: binding; conditions: 1 uM
[18] = target: CK1δ (Homo sapiens (Human), UniProt P48730); test: Dundee profiling
[19] = target: TGFBR1 (Homo sapiens (Human), UniProt P36897); test: Dundee profiling
Chain of TGFBR1 (P36897 34-503, species assumed): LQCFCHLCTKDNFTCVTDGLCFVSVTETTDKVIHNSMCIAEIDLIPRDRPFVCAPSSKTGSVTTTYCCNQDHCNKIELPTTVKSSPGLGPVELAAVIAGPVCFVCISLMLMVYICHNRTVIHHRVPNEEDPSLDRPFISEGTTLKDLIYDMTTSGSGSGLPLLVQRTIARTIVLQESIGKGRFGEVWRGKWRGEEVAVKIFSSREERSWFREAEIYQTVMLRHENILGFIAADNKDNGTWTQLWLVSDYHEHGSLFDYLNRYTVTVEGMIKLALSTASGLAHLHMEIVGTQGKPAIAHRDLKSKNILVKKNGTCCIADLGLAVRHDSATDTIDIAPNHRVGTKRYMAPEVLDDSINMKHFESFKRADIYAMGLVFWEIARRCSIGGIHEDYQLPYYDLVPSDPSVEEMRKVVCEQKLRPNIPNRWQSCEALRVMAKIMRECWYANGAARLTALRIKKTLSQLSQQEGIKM

[20] = target: CAMK1 (Homo sapiens (Human), UniProt Q14012); test: Dundee profiling
[21] = target: RSK2 (Homo sapiens (Human), UniProt P51812); test: Dundee profiling
Chain of RSK2 (P51812 whole entry, species assumed): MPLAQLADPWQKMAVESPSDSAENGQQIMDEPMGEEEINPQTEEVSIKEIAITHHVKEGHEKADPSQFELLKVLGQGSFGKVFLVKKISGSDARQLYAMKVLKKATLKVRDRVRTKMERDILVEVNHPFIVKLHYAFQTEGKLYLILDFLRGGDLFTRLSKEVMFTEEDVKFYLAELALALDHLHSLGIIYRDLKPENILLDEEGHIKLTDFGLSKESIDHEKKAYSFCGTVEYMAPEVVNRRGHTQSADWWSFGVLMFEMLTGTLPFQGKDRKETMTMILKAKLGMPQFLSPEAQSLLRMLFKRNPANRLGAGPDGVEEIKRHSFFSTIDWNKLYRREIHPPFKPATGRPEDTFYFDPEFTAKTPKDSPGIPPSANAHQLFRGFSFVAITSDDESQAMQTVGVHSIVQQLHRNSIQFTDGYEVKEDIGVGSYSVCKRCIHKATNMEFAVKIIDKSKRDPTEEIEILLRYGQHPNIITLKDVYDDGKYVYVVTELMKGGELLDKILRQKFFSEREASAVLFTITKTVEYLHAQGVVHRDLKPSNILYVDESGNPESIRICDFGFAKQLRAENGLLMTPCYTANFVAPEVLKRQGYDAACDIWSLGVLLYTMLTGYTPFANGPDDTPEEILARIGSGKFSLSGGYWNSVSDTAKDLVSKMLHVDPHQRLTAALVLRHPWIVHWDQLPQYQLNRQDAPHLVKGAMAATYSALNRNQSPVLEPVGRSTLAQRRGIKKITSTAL

[22] = target: BTK (Homo sapiens (Human), UniProt Q06187); test: KinomeScan; assay type: binding; conditions: 1 uM
[23] = target: Src (Homo sapiens (Human), UniProt P12931); test: Dundee profiling
Chain of Src (P12931 whole entry, looked up, species assumed): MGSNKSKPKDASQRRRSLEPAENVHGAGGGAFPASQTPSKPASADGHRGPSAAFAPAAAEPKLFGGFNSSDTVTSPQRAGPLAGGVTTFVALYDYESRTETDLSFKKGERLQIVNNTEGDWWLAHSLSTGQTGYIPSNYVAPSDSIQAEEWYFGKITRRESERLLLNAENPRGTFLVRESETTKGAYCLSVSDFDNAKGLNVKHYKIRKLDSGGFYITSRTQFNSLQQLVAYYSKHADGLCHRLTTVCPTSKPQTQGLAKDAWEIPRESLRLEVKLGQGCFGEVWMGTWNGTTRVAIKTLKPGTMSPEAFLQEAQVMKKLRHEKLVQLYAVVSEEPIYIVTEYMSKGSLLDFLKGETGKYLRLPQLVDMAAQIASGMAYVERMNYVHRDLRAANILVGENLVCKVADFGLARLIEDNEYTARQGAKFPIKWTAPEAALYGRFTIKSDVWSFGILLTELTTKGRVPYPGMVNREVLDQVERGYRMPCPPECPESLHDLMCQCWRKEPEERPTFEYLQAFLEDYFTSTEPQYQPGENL

[24] = target: MET (Homo sapiens (Human), UniProt P08581); test: KinomeScan; assay type: binding; conditions: 1 uM
[25] = target: LATS2 (Homo sapiens (Human), UniProt Q9NRM7); test: KinomeScan; assay type: binding; conditions: 1 uM
[26] = target: LRRK2[G2019S] (Homo sapiens (Human), UniProt Q5S007, G2019S); test: LRRK2 enzyme kinase assay, G2019S; assay type: biochemical; conditions: Table 1; ATP at Km 112 μm
[27] = target: HIPK2 (Homo sapiens (Human), UniProt Q9H2X6); test: Dundee profiling
Chain of HIPK2 (Q9H2X6 whole entry, looked up, species assumed): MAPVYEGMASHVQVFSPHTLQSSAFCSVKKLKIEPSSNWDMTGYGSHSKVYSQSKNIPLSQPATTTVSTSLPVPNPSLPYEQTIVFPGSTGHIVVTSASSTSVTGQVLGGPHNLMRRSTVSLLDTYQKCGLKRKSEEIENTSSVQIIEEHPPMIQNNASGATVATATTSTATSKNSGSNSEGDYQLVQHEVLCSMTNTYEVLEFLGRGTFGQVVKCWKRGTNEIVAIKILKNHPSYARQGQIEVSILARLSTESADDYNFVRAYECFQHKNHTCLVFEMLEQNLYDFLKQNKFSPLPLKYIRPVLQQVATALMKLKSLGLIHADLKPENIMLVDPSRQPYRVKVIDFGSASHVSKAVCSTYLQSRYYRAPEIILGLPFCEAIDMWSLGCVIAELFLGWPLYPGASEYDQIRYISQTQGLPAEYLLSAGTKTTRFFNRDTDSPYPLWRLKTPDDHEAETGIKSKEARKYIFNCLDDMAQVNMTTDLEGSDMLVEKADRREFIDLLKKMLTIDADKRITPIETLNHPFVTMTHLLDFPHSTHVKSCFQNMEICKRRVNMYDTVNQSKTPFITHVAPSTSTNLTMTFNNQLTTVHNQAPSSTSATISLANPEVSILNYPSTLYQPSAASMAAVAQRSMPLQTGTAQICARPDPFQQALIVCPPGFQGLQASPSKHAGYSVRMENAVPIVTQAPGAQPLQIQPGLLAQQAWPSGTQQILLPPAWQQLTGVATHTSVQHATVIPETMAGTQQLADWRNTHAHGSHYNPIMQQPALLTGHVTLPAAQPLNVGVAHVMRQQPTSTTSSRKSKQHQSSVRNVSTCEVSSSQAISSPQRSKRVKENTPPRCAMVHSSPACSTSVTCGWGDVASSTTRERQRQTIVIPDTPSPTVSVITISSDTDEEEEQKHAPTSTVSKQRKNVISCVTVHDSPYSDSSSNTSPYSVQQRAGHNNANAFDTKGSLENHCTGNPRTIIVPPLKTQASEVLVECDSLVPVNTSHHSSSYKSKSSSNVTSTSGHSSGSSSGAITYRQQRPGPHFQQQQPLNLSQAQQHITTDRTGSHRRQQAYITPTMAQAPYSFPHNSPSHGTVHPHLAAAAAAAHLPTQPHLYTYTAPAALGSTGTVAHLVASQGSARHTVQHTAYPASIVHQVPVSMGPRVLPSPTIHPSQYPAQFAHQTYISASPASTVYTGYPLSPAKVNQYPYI

[28] = target: MSK1 (Homo sapiens (Human), UniProt O75582); test: Dundee profiling
Chain of MSK1 (O75582 whole entry, species assumed): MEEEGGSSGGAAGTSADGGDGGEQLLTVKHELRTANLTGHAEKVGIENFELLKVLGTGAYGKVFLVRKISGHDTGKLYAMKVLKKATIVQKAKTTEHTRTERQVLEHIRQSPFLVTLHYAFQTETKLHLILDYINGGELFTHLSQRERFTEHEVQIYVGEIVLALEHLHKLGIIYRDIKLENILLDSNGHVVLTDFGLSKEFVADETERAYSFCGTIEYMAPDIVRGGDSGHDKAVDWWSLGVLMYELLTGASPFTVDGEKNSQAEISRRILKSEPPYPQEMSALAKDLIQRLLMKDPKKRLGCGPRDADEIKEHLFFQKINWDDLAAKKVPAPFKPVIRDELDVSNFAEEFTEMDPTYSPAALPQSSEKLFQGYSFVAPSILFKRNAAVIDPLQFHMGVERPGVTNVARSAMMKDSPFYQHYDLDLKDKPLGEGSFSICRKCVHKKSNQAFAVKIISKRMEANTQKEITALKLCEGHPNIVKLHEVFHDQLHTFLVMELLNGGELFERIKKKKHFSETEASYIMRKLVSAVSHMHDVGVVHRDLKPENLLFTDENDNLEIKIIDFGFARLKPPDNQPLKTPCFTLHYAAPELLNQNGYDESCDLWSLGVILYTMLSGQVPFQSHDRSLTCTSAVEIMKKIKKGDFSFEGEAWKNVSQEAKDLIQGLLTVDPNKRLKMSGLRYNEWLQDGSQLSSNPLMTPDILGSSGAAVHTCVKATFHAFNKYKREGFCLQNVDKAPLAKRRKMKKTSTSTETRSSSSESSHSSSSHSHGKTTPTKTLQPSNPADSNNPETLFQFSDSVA

[29] = read-out: percent remaining enzymatic activity, I1, 1 μM
[30] = read-out: percent remaining enzymatic activity, I10

CNc1nc(Nc2ccc(C(=O)N3CCOCC3)cc2OC)nc2[nH]cc(Cl)c12 [Compound 18, (4-((5-chloro-4-(methylamino)-7H-pyrrolo[2,3-d]pyrimidin-2-yl)amino)-3-methoxyphenyl)(morpholino)methanone]
percent remaining enzymatic activity ([1]; I10): 85%
remaining activity at 1 µM ([1]; read-out: percent remaining enzymatic activity): 85%
IC50 [2]: 2.2 nM
IC50 [3]: 19.8 nM
IC50 [4]: 47.7 nM
IC50 [5]: 6.6 nM
remaining activity at 1 µM [6, 29]: 76%
remaining activity at 1 µM [6, 30]: 52%
remaining activity at 1 µM [7, 29]: 91%
remaining activity at 1 µM [7, 30]: 56%
KinomeScan value [8]: 100
AUClast ([9]; Brain, i.v., 2 mg/kg): 239.31 ng·h/mL
AUClast ([9]; Plasma, i.v., 2 mg/kg): 532.67 ng·h/mL
T1/2 ([9]; Plasma, i.v., 2 mg/kg): 39.6 min
AUClast ([9]; Plasma, p.o., 10 mg/kg): 3094.58 ng·h/mL
Kp ([9]; mouse, brain/plasma, iv, 2 mg/kg i.v., from AUClast, read-out: brain/plasma concentration ratio): 0.45
AUC(0-inf) ([9]; mouse, iv, Brain, 2 mg/kg): 246 ng·h/mL
AUC(0-t) ([9]; mouse, iv, Brain, 2 mg/kg): 239 ng·h/mL
clearance ([9]; mouse, iv, Brain, 2 mg/kg): 135 mL/min/kg
half-life ([9]; mouse, iv, Brain, 2 mg/kg): 13.8 min
C0 ([9]; mouse, iv, Brain, 2 mg/kg): 1340 ng/mL
Vd ([9]; mouse, iv, Brain, i.v., 2 mg/kg): 1.7 L/kg
AUC(0-inf) ([9]; mouse, iv, Plasma, 2 mg/kg): 536 ng·h/mL
AUC(0-t) ([9]; mouse, iv, Plasma, 2 mg/kg): 533 ng·h/mL
clearance ([9]; mouse, iv, Plasma, 2 mg/kg): 62.2 mL/min/kg
half-life ([9]; mouse, iv, Plasma, 2 mg/kg): 39.6 min
C0 ([9]; mouse, iv, Plasma, 2 mg/kg): 1600 ng/mL
Vd ([9]; mouse, iv, Plasma, i.v., 2 mg/kg): 1.73 L/kg
bioavailability ([9]; mouse, oral, Plasma, 10 mg/kg p.o. vs 2 mg/kg i.v., from AUClast, read-out: % F (oral bioavailability)): 116%
AUC(0-inf) ([9]; mouse, po, Brain, 10 mg/kg): 762 ng·h/mL
AUC(0-t) ([9]; mouse, po, Brain, 10 mg/kg): 688 ng·h/mL
Cmax ([9]; mouse, po, Brain, 10 mg/kg): 247 ng/mL
Tmax ([9]; mouse, po, Brain, 10 mg/kg): 60 min
AUC(0-inf) ([9]; mouse, po, Plasma, 10 mg/kg): 3870 ng·h/mL
AUC(0-t) ([9]; mouse, po, Plasma, 10 mg/kg): 3090 ng·h/mL
Cmax ([9]; mouse, po, Plasma, 10 mg/kg): 803 ng/mL
Tmax ([9]; mouse, po, Plasma, 10 mg/kg): 60 min
KinomeScan value [10]: 89
remaining activity at 1 µM [11, 29]: 95%
remaining activity at 1 µM [11, 30]: 68%
remaining activity at 1 µM [12, 29]: 102%
remaining activity at 1 µM [12, 30]: 92%
KinomeScan value [13]: 94
remaining activity at 1 µM [14, 29]: 75%
remaining activity at 1 µM [14, 30]: 25%
remaining activity at 1 µM [15, 29]: 37%
remaining activity at 1 µM [15, 30]: 11%
remaining activity at 1 µM [16, 29]: 61%
remaining activity at 1 µM [16, 30]: 12%
KinomeScan value [17]: 100
remaining activity at 1 µM [18, 29]: 74%
remaining activity at 1 µM [18, 30]: 33%
remaining activity at 1 µM [19, 29]: 128%
remaining activity at 1 µM [19, 30]: 119%
remaining activity at 1 µM [20, 29]: 80%
remaining activity at 1 µM [20, 30]: 34%
remaining activity at 1 µM [21, 29]: 117%
remaining activity at 1 µM [21, 30]: 94%
KinomeScan value [22]: 100
remaining activity at 1 µM [23, 29]: 110%
remaining activity at 1 µM [23, 30]: 102%
KinomeScan value [24]: 97
KinomeScan value [25]: 93
IC50 [26]: 2.2 nM
remaining activity at 1 µM [27, 29]: 84%
remaining activity at 1 µM [27, 30]: 43%
remaining activity at 1 µM [28, 29]: 109%
remaining activity at 1 µM [28, 30]: 99%

— patent US10913744B2, “LRRK2 inhibitors and methods of making and using the same” (Dana-Farber Cancer Institute, Inc., priority 2015, dated 2021)
